# Source: patent publication US5143906A, “Kedarcidin antitumor chromophore and pharmaceutical composition containing same” (Bristol-Myers Squibb Company, priority 1991, dated 1992)
# Key:
# [1] = system: human colon adenocarcinoma HCT116 drug sensitive line; assay: In vitro cytotoxicity assay (XTT), HCT116; format: cell-based
# Experimental: The A2780/DDP cell line is reported to be resistant through enhanced DNA repair mechanisms and elevated GSH/GST levels. Cells were cultured in McCoy's media and 10% fetal bovine serum. When in log phase growth, 4×10^3 cells/well were plated into 96 well microtiter plates and incubated at 37° C. in […] /5% CO2 for 24 hours to allow cell attachment. Compounds were added to the top row of wells, serially diluted (4 fold dilutions) and incubated for an additional 72 hours. The number of viable cells in each well was then quantitated as previously described^2 by adding 0.05 mg/ml final concentration tetrazolium stain (XTT) in the presence of 0.005 mM final concentration phenazine methosulfate. After incubation at room temperature for 3 hours to allow color development, optical density values were measured using a Dynatech MR600 plate reader at […]. IC50 values (drug concentration inhibiting cell growth by 50%) were calculated using linear regression analysis of the optical density readings. Triplicate determinations on separate 96 well plates were done for each drug on each cell line tested.
# [2] = system: ip implanted P388 leukemia; assay: Antitumor activity against ip implanted P388 leukemia; format: in vivo, murine (CDF1 mice)
# Description: The P388 tumor was maintained in ascitic form in DBA/2 mice. Experimental tumor models used CDF^1 mice implanted via the intraperitoneal or intravenous route with 1×10^6 leukemia cells on day 0 and dosed with drugs according to the indicated route and schedule. Mice were weighed on day 0 and on day 5 or 6. Weight loss of 20% or greater was an indicator of drug toxicity. Each dose group consisted of 6 mice with 10 mice in the untreated control group. The dosing schedule was Q1DX1;1. Death checks were performed daily and the median life span of each group determined. […] Experiments were terminated on or about day 30.
smiles,measurement,setting,value
COc1c(OC(C)C)cc2cc(O)c(C(=O)N[C@@H]3CC(=O)OC[C@@H](O[C@H]4C[C@H](O)[C@H](N(C)C)[C@H](C)O4)/C4=C/C#C[C@@H]5O[C@]56C(=C[C@H](Oc5ccc3nc5Cl)[C@@H]6O[C@H]3C[C@@](C)(O)[C@@H](O)[C@H](C)O3)C#C4)cc2c1OC [Kedarcidin chromophore],IC50,"[1]; HCT116, 72 h, VP-16 values: mean of triplicate determinations from last 6 experiments",0.4 ng/mL
same,fold more potent than VP-16,[1]; VP-16 sensitive cell line (HCT116),1725 fold
same,% T/C,"[2]; Exp. 8305, 0.125 mg/kg/dose",145%
same,Av. wgt. change,"[2]; Exp. 8305, 0.125 mg/kg/dose",0.1 g
same,Med. surv. time,"[2]; Exp. 8305, 0.125 mg/kg/dose",14.5
same,No. of mice alive on d 5,"[2]; Exp. 8305, 0.125 mg/kg/dose",6/6
same,% T/C,"[2]; Exp. 8305, 0.25 mg/kg/dose",150%
same,Av. wgt. change,"[2]; Exp. 8305, 0.25 mg/kg/dose",-0.4 g
same,Med. surv. time,"[2]; Exp. 8305, 0.25 mg/kg/dose",15.0
same,No. of mice alive on d 5,"[2]; Exp. 8305, 0.25 mg/kg/dose",6/6
same,% T/C,"[2]; Exp. 8305, 0.5 mg/kg/dose",165%
same,Av. wgt. change,"[2]; Exp. 8305, 0.5 mg/kg/dose",-0.5 g
same,Med. surv. time,"[2]; Exp. 8305, 0.5 mg/kg/dose",16.5
same,No. of mice alive on d 5,"[2]; Exp. 8305, 0.5 mg/kg/dose",6/6
same,% T/C,"[2]; Exp. 8305, 1 mg/kg/dose",175%
same,Av. wgt. change,"[2]; Exp. 8305, 1 mg/kg/dose",-0.3 g
same,Med. surv. time,"[2]; Exp. 8305, 1 mg/kg/dose",17.5
same,No. of mice alive on d 5,"[2]; Exp. 8305, 1 mg/kg/dose",6/6
same,% T/C,"[2]; Exp. 8305, 2 mg/kg/dose",105%
same,Av. wgt. change,"[2]; Exp. 8305, 2 mg/kg/dose",-2.2 g
same,Med. surv. time,"[2]; Exp. 8305, 2 mg/kg/dose",10.5
same,No. of mice alive on d 5,"[2]; Exp. 8305, 2 mg/kg/dose",6/6
same,% T/C,"[2]; Exp. 8305, 4 mg/kg/dose",90%
same,Av. wgt. change,"[2]; Exp. 8305, 4 mg/kg/dose",-3.6 g
same,Med. surv. time,"[2]; Exp. 8305, 4 mg/kg/dose",9.0
same,No. of mice alive on d 5,"[2]; Exp. 8305, 4 mg/kg/dose",6/6
same,optimal dose,"[2]; Exp. 8305, ip one day after tumor implant",1 mg/kg/inj
same,% T/C,"[2]; Exp. 8328, 0.25 mg/kg/dose",185%
same,Av. wgt. change,"[2]; Exp. 8328, 0.25 mg/kg/dose",-0.4 g
same,Med. surv. time,"[2]; Exp. 8328, 0.25 mg/kg/dose",18.5
same,No. of mice alive on d 5,"[2]; Exp. 8328, 0.25 mg/kg/dose",6/6
same,% T/C,"[2]; Exp. 8328, 0.5 mg/kg/dose",130%
same,Av. wgt. change,"[2]; Exp. 8328, 0.5 mg/kg/dose",-1.1 g
same,Med. surv. time,"[2]; Exp. 8328, 0.5 mg/kg/dose",13.0
same,No. of mice alive on d 5,"[2]; Exp. 8328, 0.5 mg/kg/dose",6/6
same,% T/C,"[2]; Exp. 8328, 1.0 mg/kg/dose",90%
same,Av. wgt. change,"[2]; Exp. 8328, 1.0 mg/kg/dose",-2.3 g
same,Med. surv. time,"[2]; Exp. 8328, 1.0 mg/kg/dose",9.0
same,No. of mice alive on d 5,"[2]; Exp. 8328, 1.0 mg/kg/dose",6/6
same,% T/C,"[2]; Exp. 8328, 2.0 mg/kg/dose",TOX
same,Av. wgt. change,"[2]; Exp. 8328, 2.0 mg/kg/dose",-1.9 g
same,Med. surv. time,"[2]; Exp. 8328, 2.0 mg/kg/dose",TOX
same,No. of mice alive on d 5,"[2]; Exp. 8328, 2.0 mg/kg/dose",2/6
same,optimal dose,"[2]; Exp. 8328, ip, Q1DX1;1",0.25 mg/kg/inj
